{"source": "patent US20250177421A1", "about": "“METHOD FOR PREVENTING OR TREATING HEARING LOSS” (MACKAY MEDICAL COLLEGE, priority 2022, published 2025)", "key": {"[1]": {"tested_on": "kanamycin/furosemide-injected mice", "experiment": "ABR hearing threshold, kanamycin/furosemide-induced SNHL in mice", "format": "in vivo", "settings": "IP6 80 mg/kg or fucoxanthin 60 mg/kg IP for 5 consecutive days", "method": "For the kanamycin-induced SNHL in mice, the schematic protocol for the dosing and timing of kanamycin, furosemide, IP6 and/or fucoxanthin was presented in FIG. 1B. Kanamycin (Sigma Aldrich, USA) was dissolved in PBS, and kanamycin (1 mg/g) and furosemide (0.1 mg/g, Sigma Aldrich, USA) were injected as a single dose on the first day. Specifically, furosemide was intraperitoneally injected within 30 min after kanamycin was injected subcutaneously (SC). One hour later, IP6 and/or fucoxanthin was intraperitoneally injected for 5 consecutive days. The ABR of mice was measured to evaluate their hearing threshold. In brief, measurements were performed on the scalps of mice under anesthesia by using subdermal needle electrodes placed at the vertex, below the pinna of the left ear (as a reference measurement), and below the contralateral ear (ground). The sound stimuli included clicks ([…]; 4, 8, and 12 kHz). The devices used for ABR measurement were specifically designed for animal experiments (BIOPAC System, USA). […] The ABR threshold was measured through detection of the presence of V waves. […] One week later, the hearing threshold of all groups of mice was measured using ABR instrument. […]"}, "[2]": {"set-up": "species or system mice", "settings": "mouse, in vivo", "method": "(§1) The used procedures followed the protocol reported by Wu et al.^[3]. Inositol hexaphosphate (IP6) obtained from Sigma (USA) was dissolved in ddH2O, and the doses given to the experimental mice intraperitoneally were 40 mg/kg and 80 mg/kg (100 μL of IP6). […] The mice of the control group received only phosphate-buffered saline (PBS, 100 μL)."}, "[3]": {"tested_on": "cisplatin-injected mice", "experiment": "Loss of outer hair cells (OHCs) count in cochlear tissues, cisplatin-induced SNHL in mice", "format": "in vivo", "method": "as §1\nExperimental mice were anesthetized, and their cochlear tissues were isolated and dissected. For whole-mount dissection, the protocol detailed by Neal et al. was followed^[5]. In brief, the cochlea was decalcified for 1 hour using a decalcification solution purchased from Apex Engineering (Aurora, IL, USA). The excess temporal bone around the cochlea was trimmed, and the cochlea was bisected along the midmodiolar plane and then submerged in phosphate buffered saline (PBS). A series of cuts through the modiolus separated the half-turns from one another. […]\nFor the loss of OHCs counts, hair cells (HCs) were counterstained with phalloidin, Myo7A and DAPI stainings. […] The images at three randomly-selected regions (300 μm length) in the apical, middle, and basal cochlear turns were acquired by using the same apparatus, and the loss of OHCs was manually counted. Average loss of OHCs was then calculated in apex, middle and base regions, respectively^[6]. Fluorescent images were taken with a Leica SP8 confocal fluorescence microscope. […]"}, "[4]": {"tested_on": "kanamycin/furosemide-injected mice", "experiment": "Loss of OHCs in cochlear tissues (immunohistochemical staining), kanamycin/furosemide-induced SNHL in mice", "format": "in vivo", "settings": "IP6 80 mg/kg IP for 5 days in kanamycin/furosemide-injected mice", "method": "For the kanamycin-induced SNHL in mice, the schematic protocol for the dosing and timing of kanamycin, furosemide, IP6 and/or fucoxanthin was presented in FIG. 1B. Kanamycin (Sigma Aldrich, USA) was dissolved in PBS, and kanamycin (1 mg/g) and furosemide (0.1 mg/g, Sigma Aldrich, USA) were injected as a single dose on the first day. Specifically, furosemide was intraperitoneally injected within 30 min after kanamycin was injected subcutaneously (SC). One hour later, IP6 and/or fucoxanthin was intraperitoneally injected for 5 consecutive days. Experimental mice were anesthetized, and their cochlear tissues were isolated and dissected. For whole-mount dissection, the protocol detailed by Neal et al. was followed^[5]. In brief, the cochlea was decalcified for 1 hour using a decalcification solution purchased from Apex Engineering (Aurora, IL, USA). […] The images at three randomly-selected regions (300 μm length) in the apical, middle, and basal cochlear turns were acquired by using the same apparatus, and the loss of OHCs was manually counted. Average loss of OHCs was then calculated in apex, middle and base regions, respectively^[6]. Fluorescent images were taken with a Leica SP8 confocal fluorescence microscope. […] One week later, the hearing threshold of all groups of mice was measured using ABR instrument. […]"}, "[5]": {"tested_on": "cisplatin-injected mice", "experiment": "Auditory brainstem response (ABR) hearing threshold, cisplatin-induced SNHL in mice", "format": "in vivo", "settings": "cisplatin-injected mice (3 mg/kg IP, 5 days) with IP6 40 or 80 mg/kg IP; measured one week later"}, "[6]": {"tested_on": "aging mice", "experiment": "ABR hearing threshold, age-related hearing loss (ARHL) mouse model", "format": "in vivo", "settings": "IP6 drink group (2% IP6 in drinking water for 10 months), 12-month-old mice"}, "[7]": {"tested_on": "12-month-old C57BL/6J mice", "experiment": "Loss of OHCs and IHCs in cochlear tissues (immunohistochemical staining), ARHL mouse model", "format": "in vivo", "settings": "12-month-old mice"}, "[8]": {"tested_on": "mouse cochlear tissues", "experiment": "NanoString neuropathology gene expression analysis of cochlear tissues", "format": "in vivo, mice", "method": "Total mRNA was extracted from mouse cochlear tissues as per the protocol described in previous studies^[10, 11]. The expression profile of neuropathological genes was analyzed using a NanoString mouse neuropathology panel (NanoString Technologies, Seattle, WA, USA), which includes genes involved in neural cell types and neuropathological processes^[12, 13]. All analyses of genes or pathways scores were performed in accordance with the user manual of the nCounter Advanced Analysis Software and were described in detail in previous studies^[10, 11]. Cold Spring Biotech in Taiwan was responsible for performing the NanoString gene expression analysis and bioinformatics analyses."}, "[9]": {"settings": "2% IP6 through drinking water for 10 months"}, "[10]": {"settings": "IP6 80 mg/kg IP three days per week for 10 months"}}}
{"compound": "fucoxanthin", "values": [{"measurement": "hearing threshold (ABR) of kanamycin/furosemide-injected mice", "setting": "[1]", "result": "significant reduction"}]}
{"compound": "N.N.[Cl][Pt][Cl]", "note": "[cisplatin, reference compound]", "values": [{"measurement": "serum alanine aminotransferase (ALT)", "setting": "[2]", "result": "no difference"}, {"measurement": "serum aspartate aminotransferase (AST)", "setting": "[2]", "result": "no difference"}, {"measurement": "serum total bilirubin", "setting": "[2]", "result": "no difference"}, {"measurement": "loss of OHCs (Myo7A+) in the apex, middle, and base regions", "setting": "[3]; cisplatin 3 mg/kg IP once per day for 5 days, compared with the control group", "result": "significant loss"}]}
{"compound": "O=P(O)(O)O[C@H]1[C@H](OP(=O)(O)O)[C@@H](OP(=O)(O)O)[C@H](OP(=O)(O)O)[C@@H](OP(=O)(O)O)[C@H]1OP(=O)(O)O", "note": "[IP6, inositol hexaphosphate]", "values": [{"measurement": "loss of OHCs (Myo7A+) in the apex, middle and base regions of the cochlear tissues", "setting": "[4]", "result": "significantly reduced"}, {"measurement": "hearing threshold (ABR) after IP6 treatment", "setting": "[5]", "result": "20 to 30", "unit": "db"}, {"measurement": "hearing threshold (ABR) of kanamycin/furosemide-injected mice", "setting": "[1]", "result": "significant reduction"}, {"measurement": "hearing function at the frequency of 12 kHz compared with the control group", "setting": "[6]", "result": "significantly improved"}, {"measurement": "serum alanine aminotransferase (ALT)", "setting": "[2]", "result": "no difference"}, {"measurement": "serum aspartate aminotransferase (AST)", "setting": "[2]", "result": "no difference"}, {"measurement": "serum total bilirubin", "setting": "[2]", "result": "no difference"}, {"measurement": "loss of IHCs (Myo7A+) in the base regions", "setting": "[7]; [9]", "result": "moderately mitigated"}, {"measurement": "loss of OHCs (Myo7A+) in the apex, middle, and base regions", "setting": "[7]; [9]", "result": "moderately mitigated"}, {"measurement": "loss of IHCs (Myo7A+) in the base regions", "setting": "[7]; [10]", "result": "moderately mitigated"}, {"measurement": "loss of OHCs (Myo7A+) in the apex, middle, and base regions", "setting": "[7]; [10]", "result": "moderately mitigated"}, {"measurement": "carbohydrate metabolism: mRNA levels of Akt3, Slc1a1, and Slc1a2", "setting": "[8]; IP6 treatment", "result": "upregulated"}, {"measurement": "lipid metabolism: mRNA levels of Cers6, Dgkb, Dgke, B4galt6, and Pla2g4c", "setting": "[8]; IP6 treatment, P<0.05", "result": "upregulated"}, {"measurement": "microglia gene score: mRNA levels of Amigo1, Atp6v1a, and Ap3m2", "setting": "[8]; after IP6 treatment (80 mg/kg), kanamycin/furosemide-injected mice, P<0.05", "result": "significantly upregulated"}, {"measurement": "endothelial cell gene score: mRNA levels of Nrxn1 and Prkcb", "setting": "[8]; after IP6 treatment (80 mg/kg), Nrxn1 P<0.01, Prkcb P<0.05", "result": "significantly upregulated"}, {"measurement": "neuron score genes (Plcb4, Cacna1a, Calb1, Hen1, Cur1, Arhgap44, Gria4, Scn1a, Grik2, Cntnap1, Shank2, Lrrc4, Rab3a, Nrxn1, Adora1, Pak1, Frmpd4, Scn2a1, Dagla, Atcay)", "setting": "[8]; after IP6 treatment (80 mg/kg), P<0.01", "result": "significantly upregulated"}, {"measurement": "myelination gene score: mRNA levels of Cntnap1, Scn2a1, and Amigo1", "setting": "[8]; after IP6 treatment, Cntnap1 P<0.01, Scn2a1 and Amigo1 P<0.05", "result": "significantly upregulated"}, {"measurement": "vesicle trafficking gene scores: mRNA levels of Cacna1a, Calb1, Gabrb2, Syt4, Cnr1, Gria4, Grik2, Rims1, Cacnb4, Stx1b, Shank2, Fgf14, Syt13, Rab3a, Ncam1, Nrxn1, Adora1, Nova1, Gabra1, Rit2", "setting": "[8]; after IP6 treatment, P<0.01", "result": "significantly upregulated"}, {"measurement": "transcriptional patterns of astrocytes, endothelial cells, microglia, and neurons", "setting": "[8]; kanamycin/furosemide-injected mice, 80 mg/kg IP6", "result": "reversed"}, {"measurement": "loss of OHCs (Myo7A+) in the apex, middle, and base regions", "setting": "[3]; IP6 80 mg/kg IP 2 h before cisplatin 3 mg/kg IP, once per day for 5 days, compared with cisplatin-injected mice without IP6", "result": "significantly reduced"}]}
